The text below walks through data of patent US20240368173A1, “TRICYCLIC GPR65 MODULATORS” (PATHIOS THERAPEUTICS LIMITED, priority 2021, published 2024).

A value given as a limit tells only on which side of the number the result lay.

Sequence of human recombinant GPR65 (Q8IYL9 whole entry): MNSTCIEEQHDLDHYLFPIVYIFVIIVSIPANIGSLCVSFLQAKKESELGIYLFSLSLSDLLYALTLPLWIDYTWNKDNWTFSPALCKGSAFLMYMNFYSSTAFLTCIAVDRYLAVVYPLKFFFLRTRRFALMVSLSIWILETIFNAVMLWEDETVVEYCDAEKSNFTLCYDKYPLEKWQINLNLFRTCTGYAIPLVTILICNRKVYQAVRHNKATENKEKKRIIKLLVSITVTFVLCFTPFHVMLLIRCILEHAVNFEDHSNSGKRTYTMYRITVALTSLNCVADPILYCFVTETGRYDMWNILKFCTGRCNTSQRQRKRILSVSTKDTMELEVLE

The first experiment concerns the target human recombinant GPR65 (Homo sapiens, UniProt Q8IYL9). Briefly: Human GPR65 cAMP HTRF antagonist assay. In kind it is cell-based.
Conditions: not given
The procedure, abridged: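 1321N1 astrocytoma cells stably expressing hrGPR65, with IBMX and EDTA, were preincubated with compound 30 min at room temperature, then acid-activated at assay pH 7.2 (control pH 7.9) for 30 min. cAMP read by HTRF (665/620 nm ratio); IC50 from 4-parameter fit normalised to high/low controls.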
(In general: In TR-FRET formats the signal depends on donor and acceptor labels being close together.)
A word on the IC50: it is the point on the concentration scale where inhibition reaches its midpoint. Consider `O=C(Nc1cc(Cl)c(Cl)cc1F)N1[C@H]2CC[C@@H]1c1c[nH]c(=O)nc1C2` [Compound 22, (5R,8S)-N-(4,5-Dichloro-2-fluorophenyl)-2-oxo-3,5,6,7,8,9-hexahydro-2H-5,8-epiminocyclohepta[d]pyrimidine-10-carboxamide], for which the IC50 is less than 0.5 µM. The same measure, in the same setting: in the case of `O=C(Nc1cc(Cl)c(-c2ccc(OC(F)F)nc2)cc1F)N1[C@H]2CC[C@@H]1c1ccnc(F)c1C2` [Compound 324, (5R,8S)-N-(5-Chloro-4-(6-(difluoromethoxy)pyridin-3-yl)-2-fluorophenyl)-1-fluoro-6,7,8,9-tetrahydro-5H-5,8-epiminocyclohepta[c]pyridine-10-carboxamide] it was less than 0.5 µM; in that of `O=C(Nc1cc(Cl)c(I)cc1F)N1[C@H]2CC[C@@H]1c1ccnc(F)c1C2` [Compound 77, (5R,8S)-N-(5-Chloro-2-fluoro-4-iodophenyl)-1-fluoro-6,7,8,9-tetrahydro-5H-5,8-epiminocyclohepta[c]pyridine-10-carboxamide], less than 0.5 µM; in that of `O=C(Nc1cc(Cl)c(-c2ccc(OC3CCC3)nc2)cc1F)N1[C@H]2CC[C@@H]1c1n[nH]c(=O)cc1C2` [Compound 216, (6S,9R)-N-(5-Chloro-4-(6-cyclobutoxypyridin-3-yl)-2-fluorophenyl)-3-oxo-3,5,6,7,8,9-hexahydro-2H-6,9-epiminocyclohepta[c]pyridazine-10-carboxamide], less than 0.5 µM. Regarding `O=C(Nc1cc(Cl)c(COc2ccccc2)cc1F)N1[C@H]2CC[C@@H]1c1n[nH]c(=O)cc1C2` [Compound 235, (6S,9R)-N-(5-Chloro-2-fluoro-4-(phenoxymethyl)phenyl)-3-oxo-3,5,6,7,8,9-hexahydro-2H-6,9-epiminocyclohepta[c]pyridazine-10-carboxamide], the 50% inhibitory concentration (IC50) is less than 0.5 µM. On the same count and under the same terms, in the case of `O=C(Nc1cc(-c2ccccc2)on1)N1[C@H]2CC[C@@H]1c1n[nH]c(=O)cc1C2` [Compound 166, (6S,9R)-3-Oxo-N-(5-phenylisoxazol-3-yl)-3,5,6,7,8,9-hexahydro-2H-6,9-epiminocyclohepta[c]pyridazine-10-carboxamide] it was less than 0.5 µM. As to `Cc1nc2ccc(-c3cc(F)c(NC(=O)N4[C@H]5CC[C@@H]4c4n[nH]c(=O)cc4C5)cc3Cl)cc2o1` [Compound 170, (6S,9R)-N-(5-Chloro-2-fluoro-4-(2-methylbenzo[d]oxazol-6-yl)phenyl)-3-oxo-3,5,6,7,8,9-hexahydro-2H-6,9-epiminocyclohepta[c]pyridazine-10-carboxamide], the IC50 is less than 0.5 µM. Same read-out and setting: in the case of `Cc1nc2ccc(-c3cc(F)c(NC(=O)N4[C@H]5CC[C@@H]4c4ccnc(F)c4C5)cc3Cl)cc2o1` [Compound 205, (5R,8S)-N-(5-Chloro-2-fluoro-4-(2-methylbenzo[d]oxazol-6-yl)phenyl)-1-fluoro-6,7,8,9-tetrahydro-5H-5,8-epiminocyclohepta[c]pyridine-10-carboxamide] it was less than 0.5 µM; in that of `Cn1ccc2c(-c3cc(F)c(NC(=O)N4[C@H]5CC[C@@H]4c4n[nH]c(=O)cc4C5)cc3Cl)ccnc21` [Compound 282, (6S,9R)-N-(5-Chloro-2-fluoro-4-(1-methyl-1H-pyrrolo[2,3-b]pyridin-4-yl)phenyl)-3-oxo-3,5,6,7,8,9-hexahydro-2H-6,9-epiminocyclohepta[c]pyridazine-10-carboxamide], less than 0.5 µM. On to `CC(C)COc1ccc(-c2cc(F)c(NC(=O)N3[C@H]4CC[C@@H]3c3n[nH]c(=O)cc3C4)cc2Cl)cn1` [Compound 319, (6S,9R)-N-(5-Chloro-2-fluoro-4-(6-isobutoxypyridin-3-yl)phenyl)-3-oxo-3,5,6,7,8,9-hexahydro-2H-6,9-epiminocyclohepta[c]pyridazine-10-carboxamide], for which the IC50 was less than 0.5 µM. Still for that read-out and setting: in the case of `COc1ccc(-c2cc(F)c(NC(=O)N3[C@H]4CC[C@@H]3c3ccnc(F)c3C4)cc2Cl)c(F)n1` [Compound 214, (5R,8S)-N-(5-Chloro-2-fluoro-4-(2-fluoro-6-methoxypyridin-3-yl)phenyl)-1-fluoro-6,7,8,9-tetrahydro-5H-5,8-epiminocyclohepta[c]pyridine-10-carboxamide] it was less than 0.5 µM; in that of `O=C(Nc1cc(Cl)c(-c2cncc(F)c2)cc1F)N1[C@H]2CC[C@@H]1c1n[nH]c(=O)cc1C2` [Compound 126, (6S,9R)-N-(5-Chloro-2-fluoro-4-(5-fluoropyridin-3-yl)phenyl)-3-oxo-3,5,6,7,8,9-hexahydro-2H-6,9-epiminocyclohepta[c]pyridazine-10-carboxamide], less than 0.5 µM.

With `O=C(Nc1noc2ccccc12)N1[C@H]2CC[C@@H]1c1n[nH]c(=O)cc1C2` [Compound 187, (6S,9R)-N-(Benzo[d]isoxazol-3-yl)-3-oxo-3,5,6,7,8,9-hexahydro-2H-6,9-epiminocyclohepta[c]pyridazine-10-carboxamide], the IC50 fell in the range of 0.5 to 5 µM. Still for that read-out and setting: in the case of `CCOc1ccc(-c2cc(F)c(NC(=O)N3[C@H]4CC[C@@H]3c3n[nH]c(=O)cc3C4)cc2Cl)cn1` [Compound 208, (6S,9R)-N-(5-Chloro-4-(6-ethoxypyridin-3-yl)-2-fluorophenyl)-3-oxo-3,5,6,7,8,9-hexahydro-2H-6,9-epiminocyclohepta[c]pyridazine-10-carboxamide] it was less than 0.5 µM; in that of `O=C(Nc1cc(Cl)c(-c2ccc(OCC(F)(F)F)nc2)cc1F)N1C2CCC1C(F)(F)c1c2ccnc1F` (racemic) [Compound 290, (±)-N-(5-Chloro-2-fluoro-4-(6-(2,2,2-trifluoroethoxy)pyridin-3-yl)phenyl)-1,9,9-trifluoro-6,7,8,9-tetrahydro-5H-5,8-epiminocyclohepta[c]pyridine-10-carboxamide], less than 0.5 µM; in that of `Cc1cc(-c2cc(F)c(NC(=O)N3[C@H]4CC[C@@H]3c3n[nH]c(=O)cc3C4)cc2Cl)ccn1` [Compound 134, (6S,9R)-N-(5-Chloro-2-fluoro-4-(2-methylpyridin-4-yl)phenyl)-3-oxo-3,5,6,7,8,9-hexahydro-2H-6,9-epiminocyclohepta[c]pyridazine-10-carboxamide], less than 0.5 µM.

`O=C(Nc1ccccc1)c1cc(F)c(NC(=O)N2[C@H]3CC[C@@H]2c2n[nH]c(=O)cc2C3)cc1Cl` [Compound 231, (6S,9R)—N-(5-Chloro-2-fluoro-4-(phenylcarbamoyl)phenyl)-3-oxo-3,5,6,7,8,9-hexahydro-2H-6,9-epiminocyclohepta[c]pyridazine-10-carboxamide]: the IC50 lay in the range of 0.5 to 5 µM.

Regarding `O=C(Nc1cc(Cl)c(-c2ccc3nonc3c2)cn1)N1[C@H]2CC[C@@H]1c1ccnc(F)c1C2` [Compound 339, (5R,8S)-N-(5-(Benzo[c][1,2,5]oxadiazol-5-yl)-4-chloropyridin-2-yl)-1-fluoro-6,7,8,9-tetrahydro-5H-5,8-epiminocyclohepta[c]pyridine-10-carboxamide], the 50% inhibitory concentration (IC50) is less than 0.5 µM. Still for that read-out and setting: in the case of `O=C(Nc1cc(Cl)c(C(F)(F)F)cc1F)N1[C@@H]2CC[C@H]1c1ccnc(F)c1[C@H]2F` [Compound 295, (5S,8R,9R)-N-(5-Chloro-2-fluoro-4-(trifluoromethyl)phenyl)-1,9-difluoro-6,7,8,9-tetrahydro-5H-5,8-epiminocyclohepta[c]pyridine-10-carboxamide] it was less than 0.5 µM; in that of `O=C(Nc1cc(Cl)c(-c2cnc(F)c(F)c2)cc1F)N1[C@H]2CC[C@@H]1c1c[nH]c(=O)cc1C2` [Compound 261, (6S,9R)-N-(5-Chloro-4-(5,6-difluoropyridin-3-yl)-2-fluorophenyl)-3-oxo-3,5,6,7,8,9-hexahydro-2H-6,9-epiminocyclohepta[c]pyridine-10-carboxamide], less than 0.5 µM. For the compound `CC(C)(O)c1ccc(NC(=O)N2[C@H]3CC[C@@H]2c2ccnc(F)c2C3)cc1Cl` [Compound 60, (5R,8S)—N-(3-Chloro-4-(2-hydroxypropan-2-yl)phenyl)-1-fluoro-6,7,8,9-tetrahydro-5H-5,8-epiminocyclohepta[c]pyridine-10-carboxamide], the IC50 was less than 0.5 µM. As to `CO[C@H]1C[C@H](Oc2ccc(-c3cc(F)c(NC(=O)N4[C@H]5CC[C@@H]4c4n[nH]c(=O)cc4C5)cc3Cl)cn2)C1` [Compound 306, (6S,9R)-N-(5-Chloro-2-fluoro-4-(6-((1r,3R)-3-methoxycyclobutoxy)pyridin-3-yl)phenyl)-3-oxo-3,5,6,7,8,9-hexahydro-2H-6,9-epiminocyclohepta[c]pyridazine-10-carboxamide], the IC50 was less than 0.5 µM. For `O=C(Nc1cc(F)c(-c2ccc(C(F)(F)F)nc2)cc1F)N1[C@H]2CC[C@@H]1c1ccnc(F)c1C2` [Compound 223, (5R,8S)-N-(2,5-Difluoro-4-(6-(trifluoromethyl)pyridin-3-yl)phenyl)-1-fluoro-6,7,8,9-tetrahydro-5H-5,8-epiminocyclohepta[c]pyridine-10-carboxamide], the IC50 is less than 0.5 µM.

The experiment is the same for the next values; noted with them: 1321N1-hrGPR65 cells, cAMP HTRF, assay pH 7.2; read-out: hGPR65 IC50 (Activity of selected compounds according to the invention).
On to `COCc1cncc(-c2cc(F)c(NC(=O)N3[C@H]4CC[C@@H]3c3n[nH]c(=O)cc3C4)cc2Cl)c1` [Compound 280, (6S,9R)-N-(5-Chloro-2-fluoro-4-(5-(methoxymethyl)pyridin-3-yl)phenyl)-3-oxo-3,5,6,7,8,9-hexahydro-2H-6,9-], for which the IC50 lay within 0.5 to 5 µM. Take `O=C(Nc1cc(Cl)c(-c2ccnnc2)cc1F)N1[C@H]2CC[C@@H]1c1n[nH]c(=O)cc1C2` [Compound 174, (6S,9R)-N-(5-Chloro-2-fluoro-4-(pyridazin-4-yl)phenyl)-3-oxo-3,5,6,7,8,9-hexahydro-2H-6,9-epiminocyclohepta[c]pyridazine-10-carboxamide]: the IC50 is greater than 5 µM. In the case of `N#Cc1cnc(F)c2c1[C@H]1CC[C@@H](C2)N1C(=O)Nc1cc(Cl)c(Cl)cc1F` [Compound 160, (5R,8S)-4-Cyano-N-(4,5-dichloro-2-fluorophenyl)-1-fluoro-6,7,8,9-tetrahydro-5H-5,8-epiminocyclohepta[c]pyridine-10-carboxamide], the half-maximal inhibitory concentration (IC50) lay in the range of 0.5 to 5 µM.
